Measured values reported in PMC4102417 (PLoS Neglected Tropical Diseases, 2014).
pEC50: −log10 of the molar value. Counter-ions that a name gives are not always drawn. Like-named read-outs stand apart in the source and are kept apart here.

Legend:
3T3 fibroblast cells = experiment: cells; assay type: cell-based, murine; conditions: for activity at 10 µM: Mus musculus, NIH3T3, 72 h, read-out: Mammalian (3T3) cell % growth at 10 uM
[1] = test system: T. cruzi (Tulahuen strain); experiment: microbe, parasite or virus in culture; assay type: cell-based, Trypanosoma cruzi; conditions: for activity at 10 µM: Trypanosoma cruzi, TULAHUEN, Fibroblast, 120 h, read-out: T. cruzi % growth @ 10 uM (Amastigotes)
Method: Compounds were tested against T. cruzi (Tulahuen strain) stably expressing the beta-galactosidase gene as previously described. […] Fibroblasts were plated at a density of 2×10^3 per well in 96 well tissue culture plates. After 24 hours of incubation, 1×10^4 trypomastigotes/well were added to the fibroblasts and incubated for 4 hours before addition of the test compounds from the Spectrum Collection (10 µM final concentration). Cultures were incubated at 37°C for 5 days, then developed with chlorophenol red β-D-galactopyranoside as previously described. The percent inhibition is reported with standard deviation of the mean. […] Z-prime values were calculated for each 96-well plate based on positive (4 wells) and negative controls (4 wells).

Row | Compound | activity at 10 µM (3T3 fibroblast cells; Table S2) | activity at 10 µM ([1]; Table S2) | further results
1 | COC(=O)CC1C(C)(C)C(OC(C)=O)C2C(OC(C)=O)C34OC2(O)C1(C)C3CCC1(C)C4=CC(=O)OC1c1ccoc1 (centres unmarked) [[…], methyl 2-[14,18-bis(acetyloxy)-6-(furan-3-yl)-16-hydroxy-7,11,13,13-tetramethyl-4-oxo-5,17-dioxapentacyclo[13.2.1.0^{1,10}.0^{2,7}.0^{11,16}]octadec-2-en-12-yl]acetate] | 89.7% | 7.2% | –
2 | CC(=O)OC1C(=O)C2(C)C(O)CC3OCC3(OC(C)=O)C2C(OC(=O)c2ccccc2)C2(O)CC(OC(=O)C(O)C(NC(=O)c3ccccc3)c3ccccc3)C(C)=C1C2(C)C (centres unmarked) [PACLITAXEL, 4,12-bis(acetyloxy)-1,9-dihydroxy-15-{[2-hydroxy-3-phenyl-3-(phenylformamido)propanoyl]oxy}-10,14,17,17-tetramethyl-11-oxo-6-oxatetracyclo[11.3.1.0^{3,10}.0^{4,7}]heptadec-13-en-2-yl benzoate] | – | – | activity at 10 µM (3T3 fibroblast cells; Table S1): 58.1%; activity at 10 µM ([1]; Table S1): 0.2%
3 | COc1c2c(cc3occ(-c4ccc5c(c4)OCO5)c(=O)c13)OC(C)(C)C=C2 [METHYL ROBUSTONE, 3-(2H-1,3-benzodioxol-5-yl)-5-methoxy-8,8-dimethyl-4H,8H-pyrano[3,2-g]chromen-4-one] | 68.2% | 2.5% | –
4 | C=CCN(C)CCCCCCOc1ccc(C(=O)c2ccc(Br)cc2)c(F)c1 [Ro 48-8071] | – | – | CC50 (3T3 fibroblast cells; 3T3 fibroblasts, 72 hours, separate assays separated by semicolons, read-out: Mammalian cell CC50): 7.4 µM; pEC50 ([1]; intracellular amastigotes, 5 days, separate assays separated by semicolons, read-out: T. cruzi EC50): 6.39
5 | Cc1[nH]c2ccccc2c1CN(C)C [2-METHYL GRAMINE] | 86.9% | 20.8% | –
6 | C=C1C(=O)OC2CC1C(OC(C)=O)CC(C)=CCCC(C)=CCCC2(C)O (centres unmarked) [CRASSIN ACETATE, 12-hydroxy-4,8,12-trimethyl-16-methylidene-15-oxo-14-oxabicyclo[11.3.1]heptadeca-4,8-dien-2-yl acetate] | – | – | activity at 10 µM (3T3 fibroblast cells; Table S1): 2.5%; activity at 10 µM ([1]; Table S1): 0.2%
7 | CC(=O)OC1c2c(ccc3ccc(=O)oc23)OC(C)(C)C1OC(=O)CC(C)C (centres unmarked) [DIHYDROSAMIDIN, 14-(acetyloxy)-12,12-dimethyl-4-oxo-3,11-dioxatricyclo[8.4.0.0^{2,7}]tetradeca-1(10),2(7),5,8-tetraen-13-yl 3-methylbutanoate] | 81.2% | 10.9% | –
8 | CCOc1ccc(Cc2nccc3cc(OCC)c(OCC)cc23)cc1OCC [ETHAVERINE, 1-[(3,4-diethoxyphenyl)methyl]-6,7-diethoxyisoquinoline] | 95.1% | 3.7% | –
9 | CCCCCCCC/C=C/CCCCCCCCOP(=O)([O-])OCC[N+](C)(C)C [ELAIDYLPHOSPHOCHOLINE, (9E)-octadec-9-en-1-yl [2-(trimethylazaniumyl)ethyl] phosphate] | 93.7% | 5% | –
10 | CC(C1OC(C)(C)C(O)C1O)C1CCC2(C)C3=CCC4C(C)(C)C(=O)CCC4(C)C3CCC12C (centres unmarked) [ODORATONE, 14-[1-(3,4-dihydroxy-5,5-dimethyloxolan-2-yl)ethyl]-2,6,6,11,15-pentamethyltetracyclo[8.7.0.0^{2,7}.0^{11,15}]heptadec-9-en-5-one] | 92.7% | 9.9% | –
11 | COC(=O)CCC(C)C1CCC2C3CCC4CC(O)CCC4(C)C3CC(O)C12C (centres unmarked) [METHYL DEOXYCHOLATE, methyl 4-{5,16-dihydroxy-2,15-dimethyltetracyclo[8.7.0.0^{2,7}.0^{11,15}]heptadecan-14-yl}pentanoate] | 100% | 22.9% | –
12 | CC(C)=CCc1c(O)cc2occ(-c3ccc4c(c3)OCO4)c(=O)c2c1O [DERRUBONE] | 75.4% | 22.8% | –
13 | O=C1C=C2C=CC3CC2(O1)C1CCCCN31 (centres unmarked) [SECURININE, 14-oxa-7-azatetracyclo[6.6.1.0^{1,11}.0^{2,7}]pentadeca-9,11-dien-13-one] | 75% | 1.4% | –
14 | Nc1nc(=S)c2[nH]cnc2[nH]1 [THIOGUANINE, 2-amino-6,7-dihydro-3H-purine-6-thione] | 98.3% | 14.8% | –
15 | CCC(=C(c1ccccc1)c1ccc(OCCN(C)C)cc1)c1ccccc1 [TAMOXIFEN, {2-[4-(1,2-diphenylbut-1-en-1-yl)phenoxy]ethyl}dimethylamine] | 97% | 22.5% | –
16 | COc1ccc(-c2cc(=O)c3c(O)cc(O)cc3o2)cc1 [ACACETIN, 5,7-dihydroxy-2-(4-methoxyphenyl)-4H-chromen-4-one] | 77.4% | 23.1% | –
17 | c1ccc(-c2ccc(C(c3ccccc3)n3ccnc3)cc2)cc1 (centres unmarked) [BIFONAZOLE, 1-[phenyl(4-phenylphenyl)methyl]-1H-imidazole] | 93.6% | 0.7% | –
18 | CN(C)CCCN1c2ccccc2Sc2ccccc21 [PROMAZINE, dimethyl[3-(10H-phenothiazin-10-yl)propyl]amine hydrochloride] | 98.7% | 9.2% | –
19 | CC(C)c1c(O)ccc2c1CCC1C(C)(C)CCCC21C (centres unmarked) [TOTAROL, 4b,8,8-trimethyl-1-(propan-2-yl)-4b,5,6,7,8,8a,9,10-octahydrophenanthren-2-ol] | 67.4% | 21.3% | –
20 | COc1ccc(-c2cc(=O)c3ccccc3o2)cc1 [4'-METHOXYFLAVONE, 2-(4-methoxyphenyl)-4H-chromen-4-one] | 100% | 18.7% | –
21 | C=CC(C1=CC(=O)C=CC1=O)c1ccccc1 (centres unmarked) [DALBERGIONE, 2-(1-phenylprop-2-en-1-yl)cyclohexa-2,5-diene-1,4-dione] | 97.5% | 12.4% | –
22 | CC(=O)OC1CC2C(C)(C)C(O)CCC2(C)C2CCC3(C)C(c4ccoc4)OC(=O)C4OC43C12C (stereo not drawn) [beta-DIHYDROGEDUNOL, 7-(furan-3-yl)-15-hydroxy-1,8,12,16,16-pentamethyl-5-oxo-3,6-dioxapentacyclo[9.8.0.0^{2,4}.0^{2,8}.0^{12,17}]nonadecan-19-yl acetate] | 76.3% | 21.8% | –
23 | O=c1c(O)c(-c2ccccc2)oc2cccc(O)c12 [3,5-DIHYDROXYFLAVONE] | 99.6% | 12.3% | –
24 | CC(=O)O[C@H]1CC[C@]2(C)C(C[C@H](OC(C)=O)[C@]3(C)C4=CC(=O)OC(c5ccoc5)[C@@]4(C)CCC23)C1(C)C (stereo partly drawn) [3beta,7beta-[…]] | 72.2% | 2.5% | –
25 | C[C@@H]1CC[C@@]23CCC4(C)[C@@](C=CC5[C@@]6(C)CCC(=O)C(C)(C)C6CC[C@]54C)(OC2=O)C3[C@H]1C (some centres unmarked) [3-OXOURSAN (28-13)OLIDE] | 100% | 11.1% | –
26 | CC(C)c1ccc2c(c1O)CCC1C3=C(CCC21C)C(=O)OC3 (centres unmarked) [TRIPTOPHENOLIDE, 6-hydroxy-1-methyl-5-(propan-2-yl)-13-oxatetracyclo[8.7.0.0^{2,7}.0^{11,15}]heptadeca-2,4,6,11(15)-tetraen-14-one] | 83.1% | 13.8% | –
27 | CC1(C)C(=O)C=CC2(C)C1CC(O)C1(C)C2CCC2(C)C(c3ccoc3)OC(=O)C3OC321 (centres unmarked) [DEACETYLGEDUNIN, 7-(furan-3-yl)-19-hydroxy-1,8,12,16,16-pentamethyl-3,6-dioxapentacyclo[9.8.0.0^{2,4}.0^{2,8}.0^{12,17}]nonadec-13-ene-5,15-dione] | 76% | 4.4% | –
28 | CCCC(C(=O)OCCN(CC)CC)(c1ccccc1)c1ccccc1 [PROADIFEN, 2-(diethylamino)ethyl 2,2-diphenylpentanoate] | 100% | 2.1% | –
